According to publication PMC7144554, “2-(Arylamino)-6-(trifluoromethyl)nicotinic Acid Derivatives: New HIV-1 RT Dual Inhibitors Active on Viral Replication” (Molecules, 2020):
Read-outs that look alike come from different tables or passages of the source.

Columns and labels:
[1] = biological target: T1, HIV-1 RT-associated RNase H activity (wt RT) (Human immunodeficiency virus type 1 group M subtype B, UniProt P04585); test: HIV-1 DNA polymerase-independent RNase H activity, wt RT; format: biochemical; conditions: for IC50: RNase H IC50, wt RT
T1 construct: RT is a heterodimeric (p66/p51) multifunctional enzyme; made in house; host or cells: Escherichia coli strain M15
Procedure: p6HRT-prot vector was kindly provided by Dr. Stuart Le Grice Laboratory. Heterodimeric RT was expressed essentially as described. Briefly, Escherichia coli strain M15 containing the p6HRT-prot vector were grown up to an OD600 of 0.7 and induced with isopropyl β-D-1-thiogalactopyranoside (IPTG) 1.7 mM for 4 h. Cell pellets were resuspended in Lysis buffer (50 mM sodium phosphate pH 7.8, 0.5 mg/mL lysozyme), incubated on ice for 20 min, added 0.3 M final NaCl, sonicated and centrifuged at 30,000× g for 1 h. The supernatant was loaded into a Ni^2+-sepharose column pre-equilibrated with loading buffer (50 mM sodium phosphate pH 7.8, 0.3 M NaCl, 10% glycerol, 10 mM imidazole) and washed thoroughly with wash buffer (50 mM sodium phosphate pH 6.0, 0.3 M NaCl, 10% glycerol, 80 mM imidazole). RT was gradient-eluted with elute buffer (wash buffer with 0.5 M imidazole). Fractions were collected, protein purity was checked by SDS-PAGE and found to be higher than 90%. RT containing fractions were pooled and diluted 1:1 with dilute buffer (50 mM sodium phosphate pH 7.0, 10% glycerol) then loaded into a Hi-trap Heparine HP GE (Healthcare Lifescience) pre-equilibrated with 10-column volume of loading buffer 2 (50 mM sodium phosphate pH 7.0, 10% glycerol, 150 mM NaCl). Column was then washed with loading buffer 2 and RT was gradient-eluted with elute buffer 2 (50 mM sodium phosphate pH 7.0, 10% glycerol, 150 mM NaCl). Fractions were collected, protein was dialyzed and stored in buffer containing 50 mM Tris HCl pH 7.0, 25 mM NaCl, 1 mM EDTA, 50% glycerol. Catalytic activities and protein concentration were determined. Enzyme-containing fractions were pooled and aliquots were stored at −80 °C.
(§1) The RT-associated RNase H activity of wt and mutated HIV RTs was measured as described, in 100 µL reaction volume containing 50 mM Tris HCl pH 7.8, 6 mM MgCl2, 1 mM dithiothreitol (DTT), 80 mM KCl, hybrid RNA/DNA (5’-[…]-3’-Fluorescein, 5’-[…]-3’-Dabcyl), and different amounts of enzymes according to a linear range of dose-response curve—20 ng of wt RT; 50 ng K103N RT; 100 ng V108A RT; 4 ng Y181C RT; 100 ng Q475A RT; 100 ng A502F RT. The reaction mixture was incubated for 1 h at 37 °C, the reaction was stopped by addition of EDTA and products were measured with a Victor 3 (Perkin) at 490/528 nm.

[2] = biological target: T2, V108A RT RNase H function (Human immunodeficiency virus type 1 group M subtype B, UniProt P04585, V695A); test: RNase H activity of mutated RT V108A; format: biochemical, HIV-1; conditions: read-out: RNase H IC50; V108A RT
T2 construct: Amino acid substitutions were introduced into the p66 HIV-1 RT subunit coded in a p6HRT-prot plasmid; made in house; host or cells: Escherichia coli strain M15
Procedure: (§2) Amino acid substitutions were introduced into the p66 HIV-1 RT subunit coded in a p6HRT-prot plasmid using the QuikChange protocol (Agilent Technologies Inc., Santa Clara, CA).
as §1

[3] = biological target: T3, Q475A RT RNase H function (Human immunodeficiency virus type 1 group M subtype B, UniProt P04585, Q1062A); test: RNase H activity of mutated RT Q475A; format: biochemical, HIV-1
T3 construct: Amino acid substitutions were introduced into the p66 HIV-1 RT subunit coded in a p6HRT-prot plasmid; made in house; host or cells: Escherichia coli strain M15
Procedure: as §2, §1

[4] = biological target: T4, A502F RT RNase H function (Human immunodeficiency virus type 1 group M subtype B, UniProt P04585, A1089F); test: RNase H activity of mutated RT A502F; format: biochemical, HIV-1; conditions: A502F RT
T4 construct: Amino acid substitutions were introduced into the p66 HIV-1 RT subunit coded in a p6HRT-prot plasmid; made in house; host or cells: Escherichia coli strain M15
Procedure: as §2, §1

HIV-1 IIIB strain = test: Antiviral assay, HIV-1 replication in TZMbl cells (luciferase); format: cell-based; conditions: for EC50: read-out: HIV-1 EC50 TZMbl Cells
Procedure: Drug-mediated inhibition of virus-induced cytotoxicity was assayed in TZM-BL cells. […] Serial dilutions of drugs were added immediately after infection. Luciferase activity was measured as reported [67]. Two days after infection, the culture medium was removed from each well and 100 µl of Bright Glo reagent (Promega, Luis Obispo, CA) was added to the cells for measurement of luminescence using a Victor 2 luminometer (Perkin). […] Cell viability in CEM cells was quantified 5 days after infection with the MTT-dye reduction method.

[5] = Cytotoxicity in TZMbl cells; format: cell-based; conditions: human
TZMbl cells = test: Cytotoxicity in TZMbl cells; format: cell-based; conditions: highest concentration tested
[6] = Cell viability in CEM cells (MTT); format: cell-based; conditions: human, MTT, 5 days
Procedure: (§3) Drug-mediated inhibition of virus-induced cytotoxicity was assayed in TZM-BL cells. Triplicate wells of 96-well plates containing 1 × 10^4 TZMbl cells were infected with HIV-1 IIIB strain at a multiplicity of infection of 0.1. Serial dilutions of drugs were added immediately after infection. Luciferase activity was measured as reported. Two days after infection, the culture medium was removed from each well and 100 µl of Bright Glo reagent (Promega, Luis Obispo, CA) was added to the cells for measurement of luminescence using a Victor 2 luminometer (Perkin). The 50% effective concentration (EC50) was defined as the concentration that caused a 50% reduction of luciferase activity (relative light units) compared to virus control wells. Cell viability in CEM cells was quantified 5 days after infection with the MTT-dye reduction method.

CEM cells = test: Cell viability in CEM cells (MTT); format: cell-based; conditions: highest concentration tested
Procedure: as §3

[7] = Human immunodeficiency virus 1, TZM-bl, TZMbl cells, HIV-1 IIIB

Row | Compound | RNase H Fold ([1]; WT RT) | IC50 [2] [µM] | IC50 [3] [µM] | RNase H Fold ([3]; Q475A RT, vs wt RT) | IC50 ([4]; read-out: RNase H IC50) [µM] | RNase H Fold ([4]; vs wt RT) | IC50 [1] [µM] | EC50 (HIV-1 IIIB strain; [7]) [µM] | CC50 [5] [µM] | percentage of cells viability in presence of the highest concentration of inhibitor tested, TZMbl (TZMbl cells) [%] | CC50 at 5 days [6] [µM] | percentage of cells viability in presence of the highest concentration of inhibitor tested, CEM cells (CEM cells) [%] | SI (selectivity index) (HIV-1 IIIB strain; TZMbl cells) | melting point [°C] | EC50 (HIV-1 IIIB strain; Human immunodeficiency virus 1, IIIB, TZM-bl) [µM]
1 | CC(C)c1ccc(O)c(=O)c(O)c1 [BTP, beta-Thujaplicinol, reference compound] | 1 | 0.34 ± 0.4 | 0.19 ± 0.03 | 1.0 | 0.17 ± 0.03 | 0.9 | – | – | – | – | – | – | – | – | –
2 | CCOC(=O)c1ccc(C(F)(F)F)nc1Nc1cc(Cl)ccc1C [Compound 9] | – | – | – | – | – | – | 24 ± 1.7 | > 10 | > 50 | 75 | > 50 | 100 | – | – | –
3 | Cc1ccc(Cl)cc1Nc1nc(C(F)(F)F)ccc1C(=O)Oc1ccc(Cl)cc1 [Compound 13] | – | – | – | – | – | – | 9.3 ± 2.5 | 10 | 36 ± 1 | – | > 50 | 70 | 3.6 | – | –
4 | Cc1ccc(Cl)cc1Nc1nc(C(F)(F)F)ccc1C(=O)Oc1ccccc1O [Compound 16, 2-Hydroxyphenyl 2-((5-chloro-2-methylphenyl)amino)-6-(trifluoromethyl)nicotinate] | – | – | – | – | – | – | 16.2 ± 6.6 | > 10 | 12.2 ± 2.1 | – | > 12.5 | 100 | – | 179 to 180 | –
5 | Cc1ccc(Cl)cc1Nc1nc(C(F)(F)F)ccc1C(=O)Oc1cccc(O)c1 [Compound 17, 3-Hydroxyphenyl 2-((5-chloro-2-methylphenyl)amino)-6-(trifluoromethyl)nicotinate] | – | – | – | – | – | – | 26.6 ± 5.6 | > 50 | > 50 | 62 | > 50 | 100 | – | 188 to 190 | –
6 | COc1ccc(OC(=O)c2ccc(C(F)(F)F)nc2Nc2cc(Cl)ccc2C)cc1 [Compound 23] | – | – | – | – | – | – | 11.6 ± 4.3 | > 10 | > 50 | 70 | > 50 | 100 | – | – | –
7 | CSc1ccc(OC(=O)c2ccc(C(F)(F)F)nc2Nc2cc(Cl)ccc2C)cc1 [Compound 24, 4-(Methylthio)phenyl 2-((5-chloro-2-methylphenyl)amino)-6-(trifluoromethyl)nicotinate] | – | – | – | – | – | – | 9.6 ± 0.8 | > 10 | 50 | – | > 50 | 100 | – | 125 to 127 | –
8 | COc1ccccc1CNC(=O)c1ccc(C(F)(F)F)nc1Nc1cc(Cl)ccc1C [Compound 39, 2-((5-Chloro-2-methylphenyl)amino)-N-(2-methoxybenzyl)-6-(trifluoromethyl)nicotinamide] | – | – | – | – | – | – | 18.7 ± 1.7 | > 10 | 14.8 ± 3.1 | – | > 12.5 | 55 | – | 148 to 150 | –
9 | Cc1ccc(Cl)cc1Nc1nc(C(F)(F)F)ccc1C(=O)NCc1ccc(Cl)cc1Cl [Compound 45, 2-((5-Chloro-2-methylphenyl)amino)-N-(2,4-dichlorobenzyl)-6-(trifluoromethyl)nicotinamide] | – | – | – | – | – | – | 19.3 ± 0.6 | > 10 | 5 ± 0.6 | – | 9.15 | – | – | 153 to 155 | –
10 | Cc1ccc(Cl)cc1Nc1nc(C(F)(F)F)ccc1C(=O)NCc1ccc(Cl)c(Cl)c1 [Compound 46, 2-((5-Chloro-2-methylphenyl)amino)-N-(3,4-dichlorobenzyl)-6-(trifluoromethyl)nicotinamide] | – | – | – | – | – | – | 25.6 ± 3.4 | > 6.3 | 6.3 ± 1.3 | – | 10.6 | – | – | 179 to 180 | –
11 | COc1cc(CNC(=O)c2ccc(C(F)(F)F)nc2Nc2cc(Cl)ccc2C)ccc1O [Compound 47, 2-((5-Chloro-2-methylphenyl)amino)-N-(4-hydroxy-3-methoxybenzyl)-6-(trifluoromethyl)nicotinamide] | – | – | – | – | – | – | 18.2 ± 1.7 | > 10 | 15 ± 3 | – | 17.4 | – | – | 142 to 143 | –
12 | Cc1ccc(Cl)cc1Nc1nc(C(F)(F)F)ccc1C(=O)N1CCN(c2ccc(Cl)c(Cl)c2)CC1 [Compound 52, (2-((5-Chloro-2-methylphenyl)amino)-6-(trifluoromethyl)pyridin-3-yl)(4-(3,4-dichlorophenyl)piperazin-1-yl)methanone] | – | – | – | – | – | – | 7.5 ± 2 | 10 ± 1.2 | 15.7 ± 5.1 | – | > 50 | 76 | 1.6 | 165 to 167 | –
13 | O=C1Nc2ccc(Cl)cc2[C@@](C#CC2CC2)(C(F)(F)F)O1 [EFV, efavirenz, reference compound] | – | – | – | – | – | – | – | – | > 50 | 100 | > 50 | 100 | – | – | 0.15 ± 0.02
